This note sets out measurements from PubChem BioAssay (NCI).

The TGI is the concentration at which net growth stops. Lower therefore signals more potent growth arrest. Usually GI50 stands for the concentration that inhibits growth by half.

Some test systems named below: M19-MEL melanoma; DMS 273 small cell lung; DMS 114 small cell lung; RXF-631 renal; LXFL 529 NSCLC; HOP-18 NSCLC; XF 498 CNS; MDA-N; KM20L2 colon.
Assay in all cases: DTP human tumour cell line panel, 48 h

Where “and” joins values, the source holds several entries; their conditions need not be identical. Identical values can stand only once.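 In this assay, cells in 96-well plates receive the compound at five concentrations for 48 hours. Endpoints are linearly interpolated between the surrounding concentrations. GI50 is the concentration that inhibits growth by half. The concentration for full growth arrest is given as TGI.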

Consider `CC(C)(C)C(=O)O[C@@H]1COC2C(O)COC21` (stereo partly specified), for which the TGI in the assay on M19-MEL melanoma, in the assay on DMS 273 small cell lung, in the assay with DMS 114 small cell lung, with RXF-631 renal, with LXFL 529 NSCLC and in the assay with HOP-18 NSCLC was > 100 µM in each case. The TGI in the assay with XF 498 CNS was > 100 µM.

For the molecule `COc1ccc(-c2cc(=O)c3c(O)cc(C)cc3o2)cc1OC`, the TGI in the assay on MDA-N was > 100 µM.

Take `CCC(C(=O)[O-])C(=O)[O-].CCC(C(=O)[O-])C(=O)[O-].N.N.NCCCCCCN.[Pt+4].[Pt+4]`: the GI50 in the assay with DMS 273 small cell lung is 8.32 µM; in the assay on LXFL 529 NSCLC it was 2370 nM; with KM20L2 colon, 15 µM; with HOP-18 NSCLC, 4.92 µM. Moreover, the TGI with DMS 273 small cell lung amounted to 16.4 µM; with LXFL 529 NSCLC it was 5.12 µM; in the assay with KM20L2 colon, 29 µM; in the assay on HOP-18 NSCLC, 11.5 µM.

`O=C1/C(=C/c2ccccc2)CN(C(=O)OCc2ccccc2)C/C1=C\c1ccccc1`: the GI50 in the assay with M19-MEL melanoma was 2010 nM; in the assay with DMS 273 small cell lung, 2.62 µM; in the assay with DMS 114 small cell lung it was 4.26 µM. Also, the TGI with M19-MEL melanoma is 7 µM and 13.6 µM; in the assay on DMS 273 small cell lung, 14.3 µM; in the assay on DMS 114 small cell lung, 21 µM; in the assay with RXF-631 renal, > 31.6 µM; with MDA-N it was 13.1 µM; in the assay on KM20L2 colon it was 18.9 µM. Besides, in the assay with XF 498 CNS, the TGI is > 31.6 µM.

For `CC1=C(c2cc(C(=O)Nc3cccc(C(F)(F)F)c3)ncn2)Sc2ccccc2N1`, the TGI with M19-MEL melanoma, in the assay with DMS 273 small cell lung, in the assay with DMS 114 small cell lung, in the assay with LXFL 529 NSCLC, in the assay with KM20L2 colon and in the assay on HOP-18 NSCLC was > 100 µM throughout. Further, the TGI in the assay on XF 498 CNS is > 100 µM.

With `Cc1cc(C)c(S(=O)(=O)ONC(=O)OC(C)(C)C)c(C)c1`, the TGI with M19-MEL melanoma, with DMS 273 small cell lung, in the assay on RXF-631 renal, with LXFL 529 NSCLC and with XF 498 CNS was > 100 µM throughout.

Regarding `O=C(NO)C(=O)Nc1ccc(Cl)cc1[N+](=O)[O-]`, the TGI in the assay with M19-MEL melanoma, in the assay with DMS 273 small cell lung, in the assay on DMS 114 small cell lung, with RXF-631 renal, in the assay on LXFL 529 NSCLC and in the assay on KM20L2 colon was > 100 µM throughout. Besides, the TGI in the assay with HOP-18 NSCLC was > 100 µM.

In the case of `CC(=O)[O-].O=C([CH-]C(=O)c1ccccc1)c1ccccc1.O=C([CH-]C(=O)c1ccccc1)c1ccccc1.[Y+3]`, in the assay with KM20L2 colon, the GI50 is 6.51 µM and the concentration for total growth inhibition (TGI) was 26.3 µM.

With `Cn1c(=S)c2[nH]c(SCCN3CCCC3)nc2n(C)c1=O`, the TGI with MDA-N was > 100 µM.

In the case of `COC12CC(=O)C(C(C)=O)=C(O)C1(C)c1c(OC(C)=O)c(C)c(O)c(C(C)=O)c1O2` (stereo unspecified), the total growth inhibition concentration (TGI) with M19-MEL melanoma was > 100 µM; with DMS 114 small cell lung it was > 100 µM; with RXF-631 renal, > 100 µM; in the assay on LXFL 529 NSCLC, > 100 µM; with KM20L2 colon, > 100 µM; with HOP-18 NSCLC it was 51.9 µM. Also, the TGI in the assay with XF 498 CNS was found to be 70.7 µM.

In the case of `COC1=Nc2ccccc2S(=O)(=O)C=C1`, the TGI in the assay on MDA-N was 20.8 µM.

Turning to `O=C([O-])c1ccc(C(=O)[O-])cc1.O=C([O-])c1ccc(C(=O)[O-])cc1.[Mo+2].[Mo+2]`, the GI50 was > 100000 nM in the assay with M19-MEL melanoma; > 100 µM in the assay with DMS 273 small cell lung; > 100 µM in the assay with RXF-631 renal; > 100000 nM in the assay on LXFL 529 NSCLC; > 100 µM in the assay with KM20L2 colon; > 100 µM in the assay with HOP-18 NSCLC. Also, in the assay on XF 498 CNS, the GI50 was > 100 µM. In addition, the TGI in the assay on M19-MEL melanoma, in the assay with DMS 273 small cell lung, with RXF-631 renal, in the assay with LXFL 529 NSCLC, in the assay with KM20L2 colon and in the assay on HOP-18 NSCLC was > 100 µM throughout. Further, the TGI in the assay with XF 498 CNS was > 100 µM.

With `N#CC1(C=O)c2ccccc2C=CN1C(=O)c1ccccc1` (stereo unspecified), the TGI in the assay on M19-MEL melanoma was > 100 µM; with DMS 273 small cell lung, > 100 µM; with DMS 114 small cell lung, 49 µM; with RXF-631 renal, > 100 µM; in the assay with LXFL 529 NSCLC it was > 100 µM; with KM20L2 colon, > 100 µM. The TGI is > 100 µM in the assay on HOP-18 NSCLC and 69.6 µM in the assay on XF 498 CNS.

Consider `CCOC(=O)NC(=O)c1cn(CCN2CCN(C(=O)CCCCCCCCCCNc3ncnc4nc[nH]c34)CC2)c(=O)[nH]c1=O`, for which the TGI with M19-MEL melanoma, in the assay on DMS 273 small cell lung, with LXFL 529 NSCLC, in the assay on KM20L2 colon and in the assay with HOP-18 NSCLC was > 100 µM throughout.

Turning to `COc1ccc(/C(=N/NC(N)=O)C(c2ccc(OC)cc2)C2C(=O)Oc3ccccc32)cc1` (stereo unspecified), the concentration for total growth inhibition (TGI) in the assay on M19-MEL melanoma, with DMS 273 small cell lung, in the assay with DMS 114 small cell lung, in the assay on RXF-631 renal, with LXFL 529 NSCLC and with KM20L2 colon was > 100 µM throughout. For the same molecule, the TGI with XF 498 CNS is > 100 µM.

For `O=C(NCCCCCCCCNC(=O)c1cccc2ccccc12)c1cccc2ccccc12`, the TGI in the assay with M19-MEL melanoma is > 100 µM; in the assay with DMS 273 small cell lung, > 100 µM; in the assay with DMS 114 small cell lung, > 100 µM; with RXF-631 renal, > 82 µM; with MDA-N it was > 100 µM; in the assay on LXFL 529 NSCLC it was > 100 µM. For the same molecule, the results for the TGI with KM20L2 colon, in the assay on HOP-18 NSCLC and in the assay on XF 498 CNS were > 100 µM, > 81.4 µM and 20.9 µM, respectively.

For the molecule `O=C(NNC(=O)c1cc(/C=C/c2cccc([N+](=O)[O-])c2)[nH]c(=S)n1)Nc1ccc(Cl)cc1`, the TGI in the assay on M19-MEL melanoma is > 100 µM; in the assay with DMS 273 small cell lung, > 100 µM; with DMS 114 small cell lung it was 97.4 µM; with LXFL 529 NSCLC it was > 100 µM; with KM20L2 colon, > 100 µM; in the assay on HOP-18 NSCLC, > 100 µM. The same molecule yielded a TGI with XF 498 CNS of 81.4 µM.
